Our source for the Luc/Gal and Inhibition of adipogenesis values is patent US9713613B2, “Methods and compositions for the treatment of cancer and related hyperproliferative disorders” (priority 2007, dated 2017).

Test [1] deals with endogenous SREBPs. The test can be described thus: Luciferase reporter assay (pSRE-Luc, normalized by β-gal) in HEK293 cells. It is filed as cell-based, human. Details: Luc/Gal: dose or concentration left out as unconfirmed. The procedure: On day 0, HEK293 cells were plated out in triplicate at a density of 5×10^3/well onto a 96-well plate in a Dulbecco's modified Eagle's medium with 10% fetal bovine serum, 100 units/mL penicillin, and 100 μg/mL streptomycin sulfate. On day 2, the cells were transiently co-transfected with the following plasmids by using Lipofectamine reagent (Invitrogen): 0.4 μg/well pSRE-Luc (an SRE-1-driven luciferase reporter construct; Hua et al., 1995 J Biol Chem 270, 29422-7), and 0.1 μg/well a b-gal reporter in which the expression of β-gal is controlled by an actin promoter in a final volume of […]. After incubation for 5 hrs at 37° C., the cells were washed with phosphate-buffered saline and then incubated in 100 μl of Dulbecco's modified Eagle's medium with 10% lipid-depleted serum, […] penicillin, and 100 μg/mL streptomycin sulfate in the absence or presence of fatostatin A. After 20 hrs of incubation, the cells in each well were lysed with 20 μL of 1× Reporter Lysis Buffer (Promega), and aliquots were used for measurement of luciferase (10 μL) and β-galactosidase (10 μL) activities. For luciferase assay, photon production was detected as counts per second in a Wallac 1420 ARVOsx multilabel counter (PerkinElmer). For β-galactosidase assays, hydrolysis of O-nitrophenyl-β-D-galactosidase was measured after incubation for 0.5 h at 37° C. by a microplate reader at the wave length of 405 nm (Tecan). The luciferase activity (counts per second) was normalized by the activity of β-galactosidase (OD units). For overexpression of the N-terminal matured form of SREBP-1c, pCMV-SREBP-1c (1-436) was co-transfected with pSRE-Luc. pSRE-Luc and pCMV-SREBP-1c (1-436) were provided by J. L. Goldstein (University of Texas Southwestern Medical Center). […]
(In a reporter assay the amount or activity of a reporter protein is the signal.)

Test [2] relates to 3T3-L1 cells. Kind of test: adipogenesis assay (formation of oil droplets). It is filed as cell-based, mouse. Details: key: +: The analogues that completely inhibited the formation of oil droplets in cells were scored to be adipogenesis-inhibiting analogues. The following applies: formation of oil droplets in cells. On the procedure:
The adipogenesis assay was performed as described (Choi et al., 2003).

Setting [3] is: entries 1-18 (FIG. 15), none = 9.4426.
[4] abbreviates: entries 1, 19-34 (FIG. 16), None = 15.0759.
[5] abbreviates: entries 1, 35-39 (FIG. 17), None = 18.
[6] abbreviates: entries 1, 40-44 (FIG. 17), None = 8.2181.

On to `CCCc1cc(-c2nc(-c3ccc(Br)cc3)cs2)ccn1` [Compound 2, 4-(4-(4-bromophenyl)thiazol-2-yl)-2-propylpyridine], for which the Luc/Gal in test [1] (setting [3]) was 4.5130.

In test [1] (setting [3]), `CCCc1cc(-c2nc(-c3ccccc3)cs2)ccn1` [Compound 3, 4-(4-phenylthiazol-2-yl)-2-propylpyridine] gave a Luc/Gal of 7.4643. Still for that read-out and setting: the figure for `CCCc1cc(-c2nc(-c3ccc(Cl)cc3)cs2)ccn1` [Compound 4, 4-(4-(4-chlorophenyl)thiazol-2-yl)-2-propylpyridine] is 6.3808. In test [1] (setting [3]), `CCc1ccc(-c2csc(-c3ccncc3)n2)cc1` [Compound 5, 4-(4-(4-ethylphenyl)thiazol-2-yl)pyridine] showed a Luc/Gal of 7.6190. In turn, `Cc1ccc(-c2csc(-c3ccncc3)n2)cc1` [Compound 6, 4-(4-p-tolylthiazol-2-yl)pyridine] gave a Luc/Gal in test [1] (setting [3]) of 13.4689.

`COc1ccc(-c2csc(-c3ccncc3)n2)cc1` [Compound 7, 4-(4-(4-methoxyphenyl)thiazol-2-yl)pyridine]: in test [1] (setting [3]), the Luc/Gal is reported as 18.3174.

The compound `CCCc1cc(-c2nc(-c3ccc(OC(=O)c4ccccc4)cc3)cs2)ccn1` [Compound 8, 4-(2-(2-propylpyridin-4-yl)thiazol-4-yl)phenylbenzoate] gave a Luc/Gal in test [1] (setting [3]) of 7.7585. Further, the Inhibition of adipogenesis result in test [2] is on record as “+”. For the compound `CCCc1cc(-c2nc(-c3ccc(O)cc3)cs2)ccn1` [Compound 9, 4-(2-(2-propylpyridin-4-yl)thiazol-4-yl)phenol], the Luc/Gal in test [1] (setting [3]) came to 14.5234. Besides, in test [2], the Inhibition of adipogenesis entry is recorded as “+”.

In the case of `CCCc1cc(-c2nc(-c3ccc(OCC(=O)OC)cc3)cs2)ccn1` [Compound 10, methyl 2-(4-(2-(2-propylpyridin-4-yl)thiazol-4-yl)phenoxy)acetate], the Luc/Gal in test [1] (setting [3]) came to 10.7717. As to `COc1ccc(-c2nc(-c3ccc(Cl)cc3)cs2)cc1OC` [Compound 12, 4-(4-chlorophenyl)-2-(3,4-dimethoxyphenyl)thiazole], the Luc/Gal in test [1] (setting [3]) is 5.9214. As for `CCCc1cc(-c2nc(-c3ccc(Cl)c(Cl)c3)cs2)ccn1` [Compound 13, 4-(4-(3,4-dichlorophenyl)thiazol-2-yl)-2-propylpyridine], the Luc/Gal in test [1] (setting [3]) came out at 5.2391. On to `CCCc1cc(-c2nc(-c3ccc(F)cc3)cs2)ccn1` [Compound 14, 4-(4-(4-fluorophenyl)thiazol-2-yl)-2-propylpyridine], for which, in test [1] (setting [3]), the Luc/Gal was 9.6605. On to `CCCc1cc(-c2nc(-c3ccc(F)cc3F)cs2)ccn1` [Compound 15, 4-(4-(2,4-difluorophenyl)thiazol-2-yl)-2-propylpyridine], for which the Luc/Gal in test [1] (setting [3]) came to 10.8383. Regarding `CCCc1cc(-c2nc(-c3ccc(N)cc3)cs2)ccn1` [Compound 16, 4-(2-(2-propylpyridin-4-yl)thiazol-4-yl)benzenamine], in test [1] (setting [3]), the Luc/Gal is listed as 10.3338. The Inhibition of adipogenesis result in test [2] is given as “+”.

In test [1] (setting [3]), `CCCc1cc(-c2nc(-c3ccc(NC(C)=O)cc3)cs2)ccn1` [Compound 18, N-(4-(2-(2-propylpyridin-4-yl)thiazol-4-yl)phenyl)acetamide] gave a Luc/Gal of 11.7685. For the same compound, in test [2], the Inhibition of adipogenesis entry is given as “+”.

As to `CCCc1cc(-c2nc(-c3ccc(NCc4ccccc4)cc3)cs2)ccn1` [Compound 20, N-benzyl-4-(2-(2-propylpyridin-4-yl)thiazol-4-yl)benzenamine], the Luc/Gal in test [1] (setting [4]) came out at 5.6748. Moreover, the Inhibition of adipogenesis result in test [2] is reported as “+”.

For the compound `CCCc1cc(-c2nc(-c3ccc(NCC4CC4)cc3)cs2)ccn1` [Compound 21, N-(cyclopropylmethyl)-4-(2-(2-propylpyridin-4-yl)thiazol-4-yl)benzenamine], in test [1] (setting [4]), the Luc/Gal came to 6.4378. Moreover, the Inhibition of adipogenesis entry in test [2] is on record as “+”. `CCCc1cc(-c2nc(-c3ccc(Br)cc3)c(C(=O)O)s2)ccn1` [Compound 22, 4-(4-bromophenyl)-2-(2-propylpyridin-4-yl)thiazole-5-carboxylic acid] showed a Luc/Gal in test [1] (setting [4]) of 21.5911.

`CCCc1cc(-c2nc(-c3ccc(Br)cc3)c(C(=O)OC)s2)ccn1` [Compound 23, methyl 4-(4-bromophenyl)-2-(2-propylpyridin-4-yl)thiazole-5-carboxylate] yielded a Luc/Gal in test [1] (setting [4]) of 8.1137. Further, the Inhibition of adipogenesis entry in test [2] is recorded as “+”. In the case of `CCCc1cc(-c2nc(-c3ccc(OC)cc3)cs2)ccn1` [Compound 24, 4-(4-(4-methoxyphenyl)thiazol-2-yl)-2-propylpyridine], the Luc/Gal in test [1] (setting [4]) was determined as 11.0367.

In turn, `CCCc1cc(-c2nc(-c3cccc(OC)c3)cs2)ccn1` [Compound 25, 4-(4-(3-methoxyphenyl)thiazol-2-yl)-2-propylpyridine] had a Luc/Gal in test [1] (setting [4]) of 7.8536. In test [1] (setting [4]), `CCCc1cc(-c2nc(-c3ccccc3OC)cs2)ccn1` [Compound 26, 4-(4-(2-methoxyphenyl)thiazol-2-yl)-2-propylpyridine] came in with a Luc/Gal of 8.3046. Besides, in test [2], the Inhibition of adipogenesis result is listed as “+”. With `Cc1ccc(-c2csc(-c3ccccc3)n2)cc1` [Compound 27, 2-phenyl-4-p-tolylthiazole], the Luc/Gal in test [1] (setting [4]) worked out at 13.8222. In the case of `CCCc1cc(-c2nc(-c3cccc(O)c3)cs2)ccn1` [Compound 28, 3-(2-(2-propylpyridin-4-yl)thiazol-4-yl)phenol], in test [1] (setting [4]), the Luc/Gal came out at 12.7791. On the same count and under the same terms, to `CCCc1cc(-c2nc(-c3ccccc3O)cs2)ccn1` [Compound 29, 2-(2-(2-propylpyridin-4-yl)thiazol-4-yl)phenol] belongs 8.2379. On the same count and under the same terms, the figure for `CCCc1cc(-c2nc(-c3ccc(Br)cc3)c(C(=O)NC(C)C)s2)ccn1` [Compound 30, 4-(4-bromophenyl)-N-isopropyl-2-(2-propylpyridin-4-yl)thiazole-5-carboxamide] is 16.0226; for `Clc1ccc(-c2csc(-c3ccncc3)n2)cc1` [Compound 31, 4-(4-(4-chlorophenyl)thiazol-2-yl)pyridine] it is 16.9971; for `CCc1cc(-c2nc(-c3ccc(Cl)cc3)cs2)ccn1` [Compound 32, 4-(4-(4-chlorophenyl)thiazol-2-yl)-2-ethylpyridine] it is 9.5798. Turning to `Clc1ccc(-c2csc(-c3ccccc3)n2)cc1` [Compound 33, 4-(4-chlorophenyl)-2-phenylthiazole], the Luc/Gal in test [1] (setting [4]) was determined as 17.8175. `CCCc1cc(-c2nc(-c3cccs3)cs2)ccn1` [Compound 34, 2-propyl-4-(4-(thiophen-2-yl)thiazol-2-yl)pyridine] yielded a Luc/Gal in test [1] (setting [4]) of 12.1593. For the same compound, the Inhibition of adipogenesis entry in test [2] is listed as “+”. With `CCCc1cc(-c2nc(-c3ccc(C)cc3)c(C(=O)O)s2)ccn1` [Compound 36, 2-(2-propylpyridin-4-yl)-4-p-tolylthiazole-5-carboxylic acid], the Luc/Gal in test [1] (setting [5]) stood at 18.99.

Take `CCc1cc(-c2nc(-c3ccc(C)cc3)cs2)ccn1` [Compound 37, 2-ethyl-4-(4-p-tolylthiazol-2-yl)pyridine]: in test [1] (setting [5]), the Luc/Gal is given as 9.87. On the same count and under the same terms, the figure for `CCCc1cc(-c2nc(-c3ccccc3)c(C(=O)O)s2)ccn1` [Compound 38, 4-phenyl-2-(2-propylpyridin-4-yl)thiazole-5-carboxylic acid] is 22.66; for `CCCc1cc(-c2nc(-c3ccc(C)cc3)c(C(=O)OC)s2)ccn1` [Compound 39, methyl 2-(2-propylpyridin-4-yl)-4-p-tolylthiazole-5-carboxylate] it is 14.93.

Regarding `CCCc1cc(-c2nc(-c3ccc(NC(=O)OC(C)(C)C)cc3)cs2)ccn1` [Compound 40, tert-butyl 4-(2-(2-propylpyridin-4-yl)thiazol-4-yl)phenylcarbamate], the Luc/Gal in test [1] (setting [6]) was 2.4390.

As to `CCCc1cc(-c2nc(-c3ccc(NC4CCCCC4)cc3)cs2)ccn1` [Compound 41, N-cyclohexyl-4-(2-(2-propylpyridin-4-yl)thiazol-4-yl)benzenamine], the Luc/Gal in test [1] (setting [6]) came to 6.5229. The same measure, in the same setting: the figure for `CCCc1cc(-c2nc(-c3ccc(NS(=O)(=O)c4ccc(C)cc4)cc3)cs2)ccn1` [Compound 42, 4-(2-(2-propylpyridin-4-yl)thiazol-4-yl)-N-tosylbenzenamine] is 3.3957. Turning to `CCCc1cc(-c2nc(-c3ccc(NS(=O)(=O)c4cccc5cccnc45)cc3)cs2)ccn1` [Compound 43, N-(4-(2-(2-propylpyridin-4-yl)thiazol-4-yl)phenyl)-8-quinolinesulfonamide], the Luc/Gal in test [1] (setting [6]) was found to be 2.8506. On the same count and under the same terms, the figure for `CCCc1cc(-c2nc(-c3ccc(NS(=O)(=O)c4cccs4)cc3)cs2)ccn1` [Compound 44, N-(4-(2-(2-propylpyridin-4-yl)thiazol-4-yl)phenyl)-2-thiophenesulfonamide] is 1.8538.
